The source of these data is the METLIN SMRT retention time set (Domingo-Almenara et al. 2019).

The structures appear in SMILES notation.

This data set is described as follows: gradient 5% acetonitrile 3 min, to 50% in 2 min, to 85% in 15 min, held 3 min, 100 µL/min. The settings on record: column: Zorbax Extend-C18 2.1 x 50 mm; eluents: water / acetonitrile, 0.1% formic acid. The method, boiled down:
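Data were gathered over 3 months by HPLC coupled to a quadrupole time-of-flight mass spectrometer, operated in positive and negative ionization mode. Mixtures of ~100 pure standards ran on a Zorbax Extend-C18 column (2.1 × 50 mm, 1.8 μm) at 100 μL/min, with water and acetonitrile each containing 0.1% formic acid and dead and dwell volumes of 40 μL and 900 μL. Retention time was read from adduct peaks picked by computer and checked manually.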
Consider `Cc1cccn2cc(-c3cccc(S(=O)(=O)N4CC(C)CC(C)C4)c3)nc12` (stereo not drawn), for which the RP-LC retention time was determined as 828 s.

`CC(=O)Nc1ccc(NC(=O)C2CCCN(C(=O)c3cc(-c4ccncc4)n[nH]3)C2)cc1` (stereo not drawn) returned an RP-LC retention time of 566 s.

For `Cc1ccc(C)c(N2CCN(Cc3nc(-c4ccc(N5CCOCC5)nc4)no3)CC2)c1`, the RP-LC retention time is 949 s.

`CCCn1cc(CCNC(=O)c2ccc(C)cc2C)c2cccnc21` gave an RP-LC retention time of 799 s.

The molecule `CC(C)Oc1ccccc1CN1CC[C@@H]2CN(S(C)(=O)=O)[C@@H]2C1` yielded an RP-LC retention time of 638 s.

`O=C(NCC1OCCc2ccccc21)C(=O)Nc1ccc(Br)cc1` (stereo not drawn) returned an RP-LC retention time of 1070 s.

Take `C=CCNC(=O)c1cnn(-c2cc(-c3nc(C4CC4)no3)ccn2)c1C`: the RP-LC retention time was 895 s.

Turning to `Cc1cc2nn(CC(=O)Nc3cc(F)ccc3C)c(=O)n2c(-c2ccccc2)n1`, the RP-LC retention time worked out at 627 s.

With `O=C(NCC1CC1)C1CCN(c2nc3ccsc3c(=O)n2-c2ccccc2)CC1`, the RP-LC retention time worked out at 747 s.

For the molecule `Cc1cc(OCC(=O)Nc2ccccc2)nc(N2CCN(c3ccccc3)CC2)n1`, the RP-LC retention time is 804 s.

`Cc1noc(C)c1CN1CCC(n2c(C)cnc2-c2ccncc2)C1` (stereo not drawn) gave an RP-LC retention time of 525 s.

Turning to `O=C(Cc1cccc(F)c1)NC1CCN(c2cc(-c3cccs3)[nH]n2)C1` (stereo not drawn), the RP-LC retention time stood at 710 s.

As for `Cc1cc(C(=O)N(CCc2cccs2)Cc2cccnc2)c(C)o1`, the RP-LC retention time was found to be 619 s.

Consider `CCOC(=O)c1c(S(=O)(=O)N2CCC(C(=O)NC3CCCCCC3)CC2)c(C)n(C)c1C`, for which the RP-LC retention time was 877 s.

`COc1ccc(CCN2CC(=O)N(c3ccc(C)c(C)c3)[C@@H]3CS(=O)(=O)C[C@@H]32)cc1` returned an RP-LC retention time of 886 s.

`Cc1cccc(C)c1NC(=O)Cn1cnc2nc(N3CCC(C(=O)NC(C)C)CC3)sc2c1=O` yielded an RP-LC retention time of 666 s.

Take `CC(C)C(=O)N1N=C(c2ccc(NS(=O)(=O)c3ccccc3)cc2)CC1c1ccco1` (stereo not drawn): the RP-LC retention time was 870 s.

`O=S(=O)(c1ccccc1F)N1CCC(c2noc(-c3ccc(F)cc3)n2)CC1` returned an RP-LC retention time of 1110 s.

Molecule `COc1cn(CC(=O)Nc2ccc(F)cc2F)c(CO)cc1=O` showed an RP-LC retention time of 565 s.

Regarding `CCc1nnc(-c2ccc3ccn(CC(=O)Nc4cc(F)ccc4F)c3c2)o1`, the RP-LC retention time was determined as 879 s.

`O=C(c1ccccc1)c1ccc(-c2ccc(O)cc2)cc1` gave an RP-LC retention time of 1000 s.

As to `Cc1cc(N2CCN(S(=O)(=O)c3cc(F)ccc3F)CC2)nc(NC2CCCCC2)n1`, the RP-LC retention time amounted to 821 s.

`COc1cccc(NC(=O)C2CCCN(S(=O)(=O)c3c[nH]c(C(=O)N4CCCC4)c3)C2)c1` (stereo not drawn) displayed an RP-LC retention time of 765 s.

Consider `CN(CC(=O)O)c1nc2c(F)cccc2s1`, for which the RP-LC retention time stood at 689 s.

For the molecule `O=C(NCc1cccs1)C1CCN(C(=O)c2ncn3c2COC(c2ccc(F)cc2)C3)CC1` (stereo not drawn), the RP-LC retention time was found to be 736 s.

Consider `CN(C1CCc2nn(C)c(=O)n2CC1)S(=O)(=O)c1cccc(C#N)c1` (stereo not drawn), for which the RP-LC retention time turned out to be 667 s.

On to `CCOC(=O)c1c(-c2cccs2)csc1NC(=O)CSc1ncn[nH]1`, for which the RP-LC retention time is 815 s.

In turn, `CCn1nccc1C(=O)NC1CCN(C2=NS(=O)(=O)C(c3ccc(C)cc3)=C2C)CC1` yielded an RP-LC retention time of 817 s.

The molecule `O=C(Nc1ccc(N2CCN(c3ccccc3)C2=O)nc1)c1ccc(Cl)cc1` returned an RP-LC retention time of 1010 s.

With `Cc1ccc(Nc2c(-c3ccc(C(=O)O)cc3)nc3cnccn23)cc1Cl`, the RP-LC retention time is 790 s.

Molecule `COc1ccc(OC)c(NS(=O)(=O)c2cc(-c3cc(C(F)(F)F)on3)sc2C)c1` registered an RP-LC retention time of 1130 s.

The molecule `CCOC(=O)C1CCCN(S(=O)(=O)c2cccs2)C1` (stereo not drawn) yielded an RP-LC retention time of 830 s.

For `Cc1cc(N2CCCCC2C)n2nc(-c3ccccc3)nc2n1` (stereo not drawn), the RP-LC retention time turned out to be 966 s.

Turning to `CC1CCN(CC2CCCN(C(=O)C3(c4ccccc4)CC3)CC2)CC1` (stereo not drawn), the RP-LC retention time was found to be 660 s.

In the case of `CCOC(=O)c1csc(NC(=O)Cn2nc3c(cc2=O)CCCC3)n1`, the RP-LC retention time worked out at 727 s.

In turn, `CCOC(=O)c1cccc(NC(=O)C2CCCN(c3nc4ccccc4nc3C(F)(F)F)C2)c1` (stereo not drawn) had an RP-LC retention time of 1280 s.

`CCc1ccc(NC(=O)N2CCC(CC(=O)N3CCCCC3)CC2)cc1` returned an RP-LC retention time of 833 s.

In turn, `CCCSCCCNc1nc(-c2nnc(-c3cccc(C)c3)o2)nc2ccccc12` returned an RP-LC retention time of 1190 s.

Molecule `Fc1cccc(-n2cc(-c3noc(-c4ccc5c(c4)OCO5)n3)nn2)c1` displayed an RP-LC retention time of 1010 s.

For `CCCN1C(=O)COc2ccc(-c3noc(C4CC(=O)N(c5cccc(Cl)c5)C4)n3)cc21` (stereo not drawn), the RP-LC retention time stood at 1080 s.

Regarding `CCOC(=O)c1c(C)[nH]c(C(=O)N2CCCC(C(=O)NCCc3ccc(OCC)cc3)C2)c1C` (stereo not drawn), the RP-LC retention time is 866 s.

Regarding `Cc1nc(N2CCN(Cc3ccc4c(c3)OCO4)CC2)nc2c1C(=O)CC(C)C2` (stereo not drawn), the RP-LC retention time is 684 s.

`CCCOC(=O)C1=C(C)NC2=C(C(=O)CCC2)C1c1ccc(OC)c(OC)c1OC` (stereo not drawn): the RP-LC retention time came to 791 s.

Consider `CCn1cc(-c2ccc(C)cc2)cc1C(=O)NCCOC`, for which the RP-LC retention time was found to be 919 s.

`CC(C)CCNS(=O)(=O)c1cccc(-c2nc(-c3ccccc3)no2)c1`: the RP-LC retention time was determined as 1230 s.

`CCc1ccc(C2=C(C)C(N3CCCN(C(=O)c4ccncc4)CC3)=NS2(=O)=O)cc1` showed an RP-LC retention time of 709 s.

As for `COc1ccc(-n2c(=O)n(C)c(=O)c3cc(C(=O)Nc4ccc(F)c(F)c4)cnc32)cc1`, the RP-LC retention time is 948 s.

The molecule `COCCCNC(=O)C1CCN(C(=O)c2ncn3c2COC(c2ccc(OC)cc2)C3)CC1` (stereo not drawn) showed an RP-LC retention time of 651 s.

`CCN1CCCC1CNC(=O)C1CCN(S(=O)(=O)c2ccc3c(ccn3CC)c2)CC1` (stereo not drawn) yielded an RP-LC retention time of 664 s.

Regarding `CCOC(=O)C(C)c1c(C(=O)c2ccc(C)nc2)c2ccccc2n1C` (stereo not drawn), the RP-LC retention time was determined as 1020 s.

For the molecule `Cc1c(C)n(-c2ccccc2)c2ncn(CC(=O)NC3CCCC3)c(=O)c12`, the RP-LC retention time was 799 s.

With `CNC(=O)N1CCC(C2CCN(C(=O)CN3CCCC3=O)C2)CC1` (stereo not drawn), the RP-LC retention time is 585 s.

For the molecule `Cc1cc(C(=O)N2CCC3(CCC3O)CC2)no1` (stereo not drawn), the RP-LC retention time was determined as 636 s.

`O=C(NC1CCCCC1)C1CCN(c2cncnc2N2CCCCC2)CC1` showed an RP-LC retention time of 672 s.

The molecule `CCc1nnc(-c2cc(C)n(CC(=O)Nc3ccc(F)c(Cl)c3)c2C)o1` registered an RP-LC retention time of 861 s.

In the case of `O=C(c1ccc(N2CCCCC2)c(S(=O)(=O)N2CCCCC2)c1)N1CCN(c2ccccn2)CC1`, the RP-LC retention time was 813 s.

As for `COc1ccc(-c2nnc(-c3ccc(Cl)c(S(=O)(=O)N4CCC(C)CC4)c3)o2)cc1`, the RP-LC retention time was determined as 1230 s.

As to `O=C(Nc1nnc(SCC(=O)N2CCCc3ccccc32)s1)c1cccs1`, the RP-LC retention time came to 827 s.
